Measured values published in patent publication US10544143B2, “4-azaindole compounds” (BRISTOL-MYERS SQUIBB COMPANY, priority 2017, dated 2020).
Read-outs that look alike come from different tables or passages of the source.

Assays:
[1] = molecular target: human TLR8 (Homo sapiens (Human), UniProt Q9NR97); assay: TLR8 inhibition reporter assay (HEK-Blue SEAP);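 also: SEAP driven by IFN-β minimal promoter carrying NF-κB and AP-1 sites, compounds dosed 0.05 nM to 50 µM for 22 h, inhibition scaled between agonist-plus-DMSO and reference-inhibitor wells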
[2] = molecular target: human TLR9 (Homo sapiens (Human), UniProt Q9NR96); assay: TLR9 inhibition reporter assay (HEK-Blue SEAP);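 also: SEAP driven by an IFN-β minimal promoter with NF-κB and AP-1 sites, read after 22 h, compounds dosed 0.05 nM–50 µM, inhibition scaled between agonist plus DMSO and reference-inhibitor wells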
[3] = molecular target: human TLR7 (Homo sapiens (Human), UniProt Q9NYK1); assay: TLR7 inhibition reporter assay (HEK-Blue SEAP); type: cell-based
[4] = read-out: TLR8 IC50, HEK-Blue cells overexpressing human TLR8, R848 15.9 μM stimulation, SEAP reporter
[5] = read-out: TLR9 IC50, HEK-Blue cells overexpressing human TLR9, ODN2006 5 nM stimulation, SEAP reporter
[6] = HEK-Blue cells overexpressing human TLR7, gardiquimod 7.5 μM stimulation, SEAP reporter
[7] = read-out: TLR8 IC50, HEK-Blue cells overexpressing human TLR8, SEAP reporter, R848 15.9 μM
[8] = read-out: TLR9 IC50, HEK-Blue cells overexpressing human TLR9, SEAP reporter, ODN2006 5 nM
[9] = HEK-Blue cells overexpressing human TLR7, SEAP reporter, gardiquimod 7.5 μM
[10] = read-out: TLR8 IC50, HEK-Blue human TLR8 cells, R848 15.9 μM
[11] = read-out: TLR9 IC50, HEK-Blue human TLR9 cells, ODN2006 5 nM
[12] = HEK-Blue human TLR7 cells, gardiquimod 7.5 μM

Sequence of human TLR8 (Q9NR97 27-1041): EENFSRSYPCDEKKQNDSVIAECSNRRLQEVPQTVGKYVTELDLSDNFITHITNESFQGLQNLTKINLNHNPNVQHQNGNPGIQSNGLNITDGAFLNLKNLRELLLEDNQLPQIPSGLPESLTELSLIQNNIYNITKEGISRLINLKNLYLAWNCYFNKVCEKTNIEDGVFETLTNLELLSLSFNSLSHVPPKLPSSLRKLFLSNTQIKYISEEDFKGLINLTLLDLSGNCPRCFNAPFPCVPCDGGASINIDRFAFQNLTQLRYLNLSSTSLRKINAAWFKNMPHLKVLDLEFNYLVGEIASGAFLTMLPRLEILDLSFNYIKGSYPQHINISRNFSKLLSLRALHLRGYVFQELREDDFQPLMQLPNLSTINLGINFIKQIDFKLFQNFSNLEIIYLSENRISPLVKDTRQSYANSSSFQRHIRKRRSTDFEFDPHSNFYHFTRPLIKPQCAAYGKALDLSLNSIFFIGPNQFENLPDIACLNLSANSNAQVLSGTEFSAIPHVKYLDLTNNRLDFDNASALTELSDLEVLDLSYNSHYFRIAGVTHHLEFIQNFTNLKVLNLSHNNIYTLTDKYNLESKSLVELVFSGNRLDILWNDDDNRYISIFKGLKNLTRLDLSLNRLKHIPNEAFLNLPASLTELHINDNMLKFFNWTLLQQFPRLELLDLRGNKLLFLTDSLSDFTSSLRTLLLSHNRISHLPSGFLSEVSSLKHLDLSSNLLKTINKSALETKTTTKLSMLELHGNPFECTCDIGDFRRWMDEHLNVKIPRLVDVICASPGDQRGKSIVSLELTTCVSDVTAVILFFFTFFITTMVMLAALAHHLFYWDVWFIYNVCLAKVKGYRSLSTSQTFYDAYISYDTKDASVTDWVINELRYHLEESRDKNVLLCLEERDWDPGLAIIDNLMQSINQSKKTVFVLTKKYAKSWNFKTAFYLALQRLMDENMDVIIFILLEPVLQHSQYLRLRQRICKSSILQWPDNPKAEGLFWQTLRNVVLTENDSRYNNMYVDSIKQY
Sequence of human TLR7 (Q9NYK1 27-1049): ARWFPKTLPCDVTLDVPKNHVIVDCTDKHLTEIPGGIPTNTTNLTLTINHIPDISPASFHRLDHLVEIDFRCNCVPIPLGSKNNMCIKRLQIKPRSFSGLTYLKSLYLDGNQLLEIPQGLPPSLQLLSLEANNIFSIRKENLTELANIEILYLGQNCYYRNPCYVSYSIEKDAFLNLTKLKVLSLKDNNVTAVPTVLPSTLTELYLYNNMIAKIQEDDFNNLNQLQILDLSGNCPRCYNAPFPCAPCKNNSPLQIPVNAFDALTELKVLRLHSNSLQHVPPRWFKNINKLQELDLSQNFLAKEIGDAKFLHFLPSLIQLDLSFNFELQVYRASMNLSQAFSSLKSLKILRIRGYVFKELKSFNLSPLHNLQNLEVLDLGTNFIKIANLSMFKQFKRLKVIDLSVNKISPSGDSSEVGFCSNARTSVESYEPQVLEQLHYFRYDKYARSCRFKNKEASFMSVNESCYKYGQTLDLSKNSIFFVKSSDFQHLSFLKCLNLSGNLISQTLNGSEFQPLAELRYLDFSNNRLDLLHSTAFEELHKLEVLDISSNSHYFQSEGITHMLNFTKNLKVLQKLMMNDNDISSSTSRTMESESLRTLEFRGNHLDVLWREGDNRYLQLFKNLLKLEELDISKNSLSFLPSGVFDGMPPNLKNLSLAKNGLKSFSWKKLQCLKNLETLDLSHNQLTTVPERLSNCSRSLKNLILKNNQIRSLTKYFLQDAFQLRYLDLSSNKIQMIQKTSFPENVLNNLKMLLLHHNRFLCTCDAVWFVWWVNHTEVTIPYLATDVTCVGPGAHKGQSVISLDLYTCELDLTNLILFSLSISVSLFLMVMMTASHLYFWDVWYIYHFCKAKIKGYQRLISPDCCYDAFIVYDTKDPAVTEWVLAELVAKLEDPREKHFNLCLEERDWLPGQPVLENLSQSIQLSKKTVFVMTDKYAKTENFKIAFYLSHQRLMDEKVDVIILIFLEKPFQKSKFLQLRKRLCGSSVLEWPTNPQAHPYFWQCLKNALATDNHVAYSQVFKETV
Sequence of human TLR9 (Q9NR96 26-1032): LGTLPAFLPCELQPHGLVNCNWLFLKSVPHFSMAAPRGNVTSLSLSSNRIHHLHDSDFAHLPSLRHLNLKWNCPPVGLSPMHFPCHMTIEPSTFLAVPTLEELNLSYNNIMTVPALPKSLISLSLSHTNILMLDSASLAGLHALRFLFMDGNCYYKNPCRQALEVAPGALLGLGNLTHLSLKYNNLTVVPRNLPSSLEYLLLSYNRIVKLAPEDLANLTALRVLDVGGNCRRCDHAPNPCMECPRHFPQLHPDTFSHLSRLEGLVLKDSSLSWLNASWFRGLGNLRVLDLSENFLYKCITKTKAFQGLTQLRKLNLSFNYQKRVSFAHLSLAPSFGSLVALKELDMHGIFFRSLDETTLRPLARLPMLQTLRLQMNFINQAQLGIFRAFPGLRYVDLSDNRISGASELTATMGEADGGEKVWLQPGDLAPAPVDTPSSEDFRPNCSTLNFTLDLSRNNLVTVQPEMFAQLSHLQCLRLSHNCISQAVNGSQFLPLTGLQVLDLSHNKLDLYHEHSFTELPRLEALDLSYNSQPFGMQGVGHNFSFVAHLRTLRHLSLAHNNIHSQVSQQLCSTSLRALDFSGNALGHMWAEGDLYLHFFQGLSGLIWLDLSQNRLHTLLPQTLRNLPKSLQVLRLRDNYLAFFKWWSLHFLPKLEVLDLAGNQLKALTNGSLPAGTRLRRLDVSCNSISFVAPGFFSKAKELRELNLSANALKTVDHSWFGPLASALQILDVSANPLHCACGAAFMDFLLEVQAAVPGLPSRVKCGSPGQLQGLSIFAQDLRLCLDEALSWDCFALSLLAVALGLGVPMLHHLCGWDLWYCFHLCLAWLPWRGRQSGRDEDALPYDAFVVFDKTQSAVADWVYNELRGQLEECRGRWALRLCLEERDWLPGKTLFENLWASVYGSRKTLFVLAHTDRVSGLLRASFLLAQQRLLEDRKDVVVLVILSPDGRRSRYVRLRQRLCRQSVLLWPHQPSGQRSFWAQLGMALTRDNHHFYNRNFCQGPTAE

| SMILES | IC50 [1, 7] [nM] | IC50 [2, 8] [nM] | IC50 [3, 9] [nM] | IC50 [1, 10] [nM] | IC50 [2, 11] [nM] | IC50 [3, 12] [nM] | other results |
| --- | --- | --- | --- | --- | --- | --- | --- |
| CC(C)c1c(-c2cn(CCS(C)(=O)=O)c3ncccc23)[nH]c2ccc(C3CCC(NC4CCOCC4)CC3)nc12 (stereo not drawn) [Example 266] |  |  |  |  |  |  | IC50 [1, 4]: 13 nM; IC50 [2, 5]: 322 nM; IC50 [3, 6]: 45 nM |
| Cc1c(-c2[nH]c3ccc(N4CC5(CN(C(=O)CN(C)C)C5)C4)nc3c2C(C)C)cn2ncnc2c1C [Example 743, 1-(6-(2-(7,8-dimethyl-[1,2,4]triazolo[1,5-a]pyridin-6-yl)-3-isopropyl-1H-pyrrolo[3,2-b]pyridin-5-yl)-2,6-diazaspiro[3.3]heptan-2-yl)-2-(dimethylamino)ethan-1-one] | 8.4 | 1880 | 3.6 |  |  |  |  |
| Cc1c(-c2[nH]c3ccc(C4CCC(N(CCO)CC5(S(C)(=O)=O)CC5)CC4)nc3c2C(C)C)cn2ncnc2c1C (stereo not drawn) [Example 481] | 3.9 | 13000 | 0.82 |  |  |  |  |
| Cc1c(-c2[nH]c3ccc(N4CCN(C(=O)CN(CC(C)C)C(C)C)CC4)nc3c2C(C)C)cn2ncnc2c1C [Example 880] |  |  |  | 30 | 19300 | 6.4 |  |
| Cc1c(-c2[nH]c3ccc(N4CC5(CN(CC#N)C5)C4)nc3c2C(C)C)cn2ncnc2c1C [Example 1008] |  |  |  | 32 | 13300 | 15 |  |
| CNC1CCC(c2ccc3[nH]c(-c4cn(C)c5ncncc45)c(C(C)C)c3n2)CC1 (stereo not drawn) [Example 1078] |  |  |  | 216 | > 50000 | 9.8 |  |
| CC(C)c1c(-c2cn(C)c3ncccc23)[nH]c2ccc(CCC3CN(CCS(C)(=O)=O)C3)nc12 [Example 684] | 13 | 365 | 14 |  |  |  |  |
| COc1cc(-c2[nH]c3cc(F)c(C4CCN(C5COC5)CC4)nc3c2C(C)C)cn2ncnc12 [Example 574] | 47 | 11900 | 3 |  |  |  |  |
| Cc1c(-c2[nH]c3ccc(N4[C@@H]5CC[C@H]4CN(C(=O)CN(C)C(C)C)C5)nc3c2C(C)C)cn2ncnc2c1C [Example 923] |  |  |  | 3.6 | 6560 | 1.2 |  |
| CCn1cc(-c2[nH]c3ccc(C4CCC(N5CC6(COC6)C5)CC4)nc3c2C(C)C)c2cccnc21 (stereo not drawn) [Example 294] |  |  |  |  |  |  | IC50 [1, 4]: 174 nM; IC50 [2, 5]: 2270 nM; IC50 [3, 6]: 85 nM |
| Cc1c(-c2[nH]c3ccc(N4CCC(N(C)Cc5csnn5)CC4)nc3c2C(C)C)cn2ncnc2c1C [Example 77] |  |  |  |  |  |  | IC50 [1, 4]: 2 nM; IC50 [2, 5]: 11600 nM; IC50 [3, 6]: 4.8 nM |
| Cc1c(-c2[nH]c3ccc(N4[C@@H](C)CN(C(=O)CN(C)C)C[C@@H]4C)nc3c2C(C)C)cn2ncnc2c1C [Example 752] | 0.53 | 10300 | 0.38 |  |  |  |  |
| Cc1c(-c2[nH]c3ccc(C4CC(NC(=O)CN(C)C)C4)nc3c2C(C)C)cn2ncnc2c1C (stereo not drawn) [Example 644] | 4.5 | 2690 | 2.7 |  |  |  |  |
| COc1cc(-c2[nH]c3ccc(C4CCN(CCS(C)(=O)=O)CC4)nc3c2C(C)C)cn2ncnc12 [Example 554] | 2.5 | 2860 | 1.5 |  |  |  |  |
| Cc1c(-c2[nH]c3ccc(N4CCN(C(=O)CN5CCC(O)CC5)CC4)nc3c2C(C)C)cn2ncnc2c1C [Example 160] |  |  |  |  |  |  | IC50 [1, 4]: 1.2 nM; IC50 [2, 5]: 10600 nM; IC50 [3, 6]: 1.8 nM |
| Cc1c(-c2[nH]c3ccc(N4CC5(CN(CCC#N)C5)C4)nc3c2C(C)C)cn2ncnc2c1C [Example 1014] |  |  |  | 26 | 21900 | 21 |  |
| COc1cc(-c2[nH]c3cc(C)c(C(=O)NC4CCN(C(C)C)CC4)nc3c2C(C)C)cn2ncnc12 [Example 731] | 15 | 1640 | 4.6 |  |  |  |  |
| Cc1c(-c2[nH]c3ccc(N4CC5(CCN(C(C)C)CC5)C4)nc3c2C(C)C)cn2ncnc2c1C [Example 46] |  |  |  |  |  |  | IC50 [1, 4]: 4.9 nM; IC50 [2, 5]: 1680 nM; IC50 [3, 6]: 4.3 nM |
| Cc1c(-c2[nH]c3ccc(N4[C@H](C)CNC[C@H]4C)nc3c2C(C)C)cn2ncnc2c1C [Example 861] |  |  |  | 4.2 | 5010 | 0.31 |  |
| Cc1cc(-c2[nH]c3ccc(CCN4CCCCC4)nc3c2C(C)C)cn2ncnc12 [Example 681] | 199 | 4240 | 104 |  |  |  |  |
| Cc1c(-c2[nH]c3ccc(N4CCN(CCC(N)=O)[C@H](C)C4)nc3c2C(C)C)cn2ncnc2c1C [Example 852] |  |  |  | 0.82 | 16200 | 5.2 |  |
| Cc1c(-c2[nH]c3ccc(C4CCC(N5CCOCC5)CC4)nc3c2C(C)C)cn2ncnc2c1C (stereo not drawn) [Example 1064] |  |  |  | 0.96 | 2460 | 0.34 |  |
| COc1cc(-c2[nH]c3cc(F)c(C4CCN(C(=O)CN(C)C)CC4)nc3c2C(C)C)cn2ncnc12 [Example 577] | 7.4 | 1880 | 0.69 |  |  |  |  |

| SMILES | IC50 [1, 7] [nM] | IC50 [2, 8] [nM] | IC50 [3, 9] [nM] | IC50 [1, 10] [nM] | IC50 [2, 11] [nM] | IC50 [3, 12] [nM] | other results |
| --- | --- | --- | --- | --- | --- | --- | --- |
| Cc1c(-c2[nH]c3ccc(N4CCN(C(=O)CN(CC(C)C)CC(C)C)CC4)nc3c2C(C)C)cn2ncnc2c1C [Example 881] |  |  |  | 68 | 43500 | 25 |  |
| Cc1c(-c2[nH]c3ccc(N4C[C@H](C)N(C(=O)CN(C)C)C[C@H]4C)nc3c2C(C)C)cn2ncnc2c1C [Example 839] |  |  |  | 3.2 | 7870 | 0.37 |  |
| CC(C)c1c(-c2cn(C)c3ncccc23)[nH]c2ccc(C3CCC(N(C)CC(=O)N(C)C)CC3)nc12 (stereo not drawn) [Example 200] |  |  |  |  |  |  | IC50 [1, 4]: 8.5 nM; IC50 [2, 5]: 773 nM; IC50 [3, 6]: 1.8 nM |
| Cc1c(-c2[nH]c3ccc(C4CCC(N(C)CC(=O)N(C)C)CC4)nc3c2C(C)C)cn2ncnc2c1C (stereo not drawn) [Example 408] | 43 | 6440 | 18 |  |  |  |  |
| Cc1c(-c2[nH]c3ccc(NCCNC(=O)CN(C)C)nc3c2C(C)C)cn2ncnc2c1C [Example 1002] |  |  |  | 4.6 | 1100 | 10 |  |
| CNCCC(=O)N1C[C@H](C)N(c2ccc3[nH]c(-c4cn5ncnc5c(C)c4C)c(C(C)C)c3n2)C[C@H]1C [Example 1034] |  |  |  | > 3120 | 26600 | 1400 |  |
| CCN(C)CC(=O)N1C[C@@H](C)N(c2ccc3[nH]c(-c4cn5ncnc5c(C)c4C)c(C(C)C)c3n2)C[C@@H]1C [Example 937] |  |  |  | 14 | 14200 | 0.52 |  |
| COc1cc(-c2[nH]c3ccc(C4CCC(NC5CCOC(C)(C)C5)C4)nc3c2C(C)C)cn2ncnc12 (stereo not drawn) [Example 729] | 1.3 | 1940 | 1.1 |  |  |  |  |
| COc1cc(-c2[nH]c3ccc(C4CC(NC5CCOCC5)C4)nc3c2C(C)C)cn2ncnc12 (stereo not drawn) [Example 632] | 2.2 | 439 | 3.1 |  |  |  |  |
| COc1cc(-c2[nH]c3ccc(C4CCC(N)C4)nc3c2C(C)C)cn2ncnc12 (single isomer, unassigned) [Example 8, 3-(3-isopropyl-2-(8-methoxy-[1,2,4]triazolo[1,5-a]pyridin-6-yl)-1H-pyrrolo[3,2-b]pyridin-5-yl)cyclopentan-1-amine] |  |  |  |  |  |  | IC50 ([1]; TLR8 IC50, HEK-Blue cells overexpressing human TLR8, R848 15.9 μM stimulation, SEAP reporter): 21 nM; IC50 ([2]; TLR9 IC50, HEK-Blue cells overexpressing human TLR9, ODN2006 5 nM stimulation, SEAP reporter): 8550 nM; IC50 [3, 6]: 4.7 nM |
| Cc1c(-c2[nH]c3ccc(N4CCN(C(=O)CNC5CC5)C[C@@H]4C)nc3c2C(C)C)cn2ncnc2c1C [Example 826] |  |  |  | 1 | 15700 | 0.7 |  |
| Cc1cc(-c2[nH]c3ccc(C4CCN(CC#N)CC4)nc3c2C(C)C)cn2ncnc12 [Example 553] | 3.2 | 537 | 0.63 |  |  |  |  |
| Cc1c(-c2[nH]c3ccc(N4CCN(CCCS(C)(=O)=O)C[C@H]4C)nc3c2C(C)C)cn2ncnc2c1C [Example 806] |  |  |  | 1.1 | 29400 | 1.1 |  |
| Cc1c(-c2[nH]c3ccc(N4CC5(CN(CC(C)(C)C)C5)C4)nc3c2C(C)C)cn2ncnc2c1C [Example 1010] |  |  |  | 4.7 | 2430 | 3.6 |  |
| Cc1c(-c2[nH]c3ccc(C4CC(NC5CCOCC5)C4)nc3c2C(C)C)cn2ncnc2c1C (stereo not drawn) [Example 635] | 1.1 | 1780 | 5.7 |  |  |  |  |
| CNC(=O)CN1CCN(c2ccc3[nH]c(-c4cc(OC)c5ncnn5c4)c(C(C)C)c3n2)CC1 [Example 138] |  |  |  |  |  |  | IC50 [1, 4]: 4.6 nM; IC50 [2, 5]: > 50000 nM; IC50 [3, 6]: 11 nM |
| COc1cc(-c2[nH]c3cc(C)c(C4CCN(C5COC5)CC4)nc3c2C(C)C)cn2ncnc12 [Example 579] | 79 | 1840 | 0.39 |  |  |  |  |
| Cc1c(-c2[nH]c3ccc(N4[C@H](C)CN(CC(N)=O)C[C@H]4C)nc3c2C(C)C)cn2ncnc2c1C [Example 866] |  |  |  | 74 | 47600 | 3.2 |  |
| CNC1CCC(c2ccc3[nH]c(-c4cn(CCO)c5ncccc45)c(C(C)C)c3n2)CC1 (stereo not drawn) [Example 295] |  |  |  |  |  |  | IC50 [1, 4]: 11 nM; IC50 [2, 5]: 883 nM; IC50 [3, 6]: 11 nM |
| Cc1c(-c2[nH]c3ccc(N4CC5(CN(CC(C)(C)O)C5)C4)nc3c2C(C)C)cn2ncnc2c1C [Example 1004] |  |  |  | 1.3 | 2790 | 2.1 |  |
| Cc1c(-c2[nH]c3ccc(N4CCN(CCC(N)=O)C[C@H]4C)nc3c2C(C)C)cn2ncnc2c1C [Example 807] |  |  |  | 1.3 | 16300 | 0.95 |  |
| CCCN1CCC(c2ccc3[nH]c(-c4cn(C)c(=O)c(Cl)c4C)c(C(C)C)c3n2)CC1 [Example 568] | 3.8 | 2080 | 6 |  |  |  |  |
